“And” between values parts separate entries of the source, which are not always exact repeats. Equal entries are not always repeated.
Legend:
[1] = tested on: pressor effects of angiotensin II; experiment: oral: blood pressure response to angiotensin II in anesthetized rats; assay type: in vivo, rat; conditions: 2 or 5 mg/kg, angiotensin II 80 ng
Method: Rats (210-290 g body weight) were fasted overnight and then anesthetized with intraperitoneal pentobarbital, 50-60 mg/kg. Tracheostomy was performed and the animals were ventilated mechanically. A cannula was inserted into a femoral vein for injection of angiotensin I or II, and a second cannula was inserted into a common carotid artery for direct measurement of arterial blood pressure. Heparin, 1,000 units, was injected via the femoral vein to prevent coagulation. Blood pressure was measured with a pressure transducer connected to a polygraph. The rats were injected with 80 ng of angiotensin I or angiotensin II in 20 μl of 0.9 g % NaCl; an amount of antiotensin I or II sufficient to raise mean arterial blood pressure by 27-40 mm Hg. After the responsiveness of a given rat to angiotensins I and II was established, compound (I), at 2 or 5 mg/kg (drug dissolved in 0.5 ml of H2 O plus 10 μl of 1N NaHCO3), was given via a stomach tube. At timed intervals, the effects of 80 ng of angiotensin I or angiotensin II on mean arterial blood pressure were tested.
Rats were prepared as described in Example 222. Compound (II) [N-benzoyl-L-phenylalanylthiopropanoyl)-L-proline] was given orally, via a stomach tube, at a dose of 12 mg/kg or 20 mg/kg. Compound (II) was dissolved in 0.5 ml of H2 O plus 10 μl of 1N NaHCO3. […]

[2] = molecular target: T1, angiotensin converting enzyme (human urinary ACE) (Homo sapiens, UniProt P12821); experiment: ACE activity assay, I50 (Example 216A); assay type: biochemical; conditions: human urinary ACE; Benzoyl-GlyHisLeu 1×10^-4 M; Hepes pH 8.0; 37° C; in vitro; read-out: I50
T1 construct: ACE purified from human urine; from tissue; host or cells: human urine (ultrafiltration and Sephacryl S-200, first eluting peak; prepared as in Ryan et al., Tissue and Cell 10, 555 (1978))

serum ACE [3] = experiment: oral effectiveness: intrinsic serum ACE activity in unanesthetized rabbits; assay type: in vivo; conditions: oral 1 mg, about 1 kg rabbit
Method: A. ACE activity assay. For most experiments described herein, the enzyme ACE was assayed in 0.05M Hepes buffer, pH 8.0 containing 0.1M NaCl and 0.75M Na2 SO4. The substrate employed was Benzoyl-GlyHisLeu at a final concentration of 1×10^-4 M, together with about 130,000 cpm of [^3 H]-Benzoyl GlyHisLeu (25 Ci/mmole). Enzyme was diluted in the above buffer such that 40 μl buffered enzyme was capable of hydrolyzing 13% of substrate in a 15-minute incubation at 37° C. To initiate the assay, 40 μl of enzyme and 10 μl of water or inhibitor dissooved in water were preincubated for five minutes at 37° C. Substrate, 50 μl, was then added to initiate reaction and the solution was incubated for 15 minutes at 37° C. To terminate the reaction, 1 ml of 0.1M HCl was added, following which 1 ml of ethyl acetate was added. The mixture was agitated on a rotary mixer and centrifuged briefly to separate the phases.
Young, unanesthetized rabbits, fasted overnight, weighing about 1 kg, were given compound (I). The compound was dissolved in water at alkaline pH, 1 mg of (I) in 3 ml water containing 50 μl 1N NaHCO3. Blood samples, 0.5 ml, were collected at timed intervals from a marginal ear vein. Sera obtained after clot formation and centrifugation were assayed for intrinsic ACE activity, using 1 μl in the assay of Example 216A.

serum ACE [4] = experiment: oral effectiveness: intrinsic serum ACE activity in rats; assay type: in vivo, female Sprague-Dawley rat; conditions: oral 1 mg/kg
Method: B. In certain experiments, as identified, an alternative assay system was employed using [^3 H]-HipGlyGly as substrate as described by Ryan, J. W., et al., Biochem. J. 167 501 (1977).
Female Sprague-Dawley rats, approximately 250 g weight, were fasted overnight and then administered either 0.5 ml of saline, via stomach tube, or 0.5 ml saline containing compound (I) at a dose of 1 mg per kg of body weight. At timed intervals the rats were beheaded using a guillotine and 3 ml-5 ml blood was collected. The sera were assayed for intrinsic ACE activity, using the assay of Example 216B.

T1 sequence (P12821 30-1232 limits assumed): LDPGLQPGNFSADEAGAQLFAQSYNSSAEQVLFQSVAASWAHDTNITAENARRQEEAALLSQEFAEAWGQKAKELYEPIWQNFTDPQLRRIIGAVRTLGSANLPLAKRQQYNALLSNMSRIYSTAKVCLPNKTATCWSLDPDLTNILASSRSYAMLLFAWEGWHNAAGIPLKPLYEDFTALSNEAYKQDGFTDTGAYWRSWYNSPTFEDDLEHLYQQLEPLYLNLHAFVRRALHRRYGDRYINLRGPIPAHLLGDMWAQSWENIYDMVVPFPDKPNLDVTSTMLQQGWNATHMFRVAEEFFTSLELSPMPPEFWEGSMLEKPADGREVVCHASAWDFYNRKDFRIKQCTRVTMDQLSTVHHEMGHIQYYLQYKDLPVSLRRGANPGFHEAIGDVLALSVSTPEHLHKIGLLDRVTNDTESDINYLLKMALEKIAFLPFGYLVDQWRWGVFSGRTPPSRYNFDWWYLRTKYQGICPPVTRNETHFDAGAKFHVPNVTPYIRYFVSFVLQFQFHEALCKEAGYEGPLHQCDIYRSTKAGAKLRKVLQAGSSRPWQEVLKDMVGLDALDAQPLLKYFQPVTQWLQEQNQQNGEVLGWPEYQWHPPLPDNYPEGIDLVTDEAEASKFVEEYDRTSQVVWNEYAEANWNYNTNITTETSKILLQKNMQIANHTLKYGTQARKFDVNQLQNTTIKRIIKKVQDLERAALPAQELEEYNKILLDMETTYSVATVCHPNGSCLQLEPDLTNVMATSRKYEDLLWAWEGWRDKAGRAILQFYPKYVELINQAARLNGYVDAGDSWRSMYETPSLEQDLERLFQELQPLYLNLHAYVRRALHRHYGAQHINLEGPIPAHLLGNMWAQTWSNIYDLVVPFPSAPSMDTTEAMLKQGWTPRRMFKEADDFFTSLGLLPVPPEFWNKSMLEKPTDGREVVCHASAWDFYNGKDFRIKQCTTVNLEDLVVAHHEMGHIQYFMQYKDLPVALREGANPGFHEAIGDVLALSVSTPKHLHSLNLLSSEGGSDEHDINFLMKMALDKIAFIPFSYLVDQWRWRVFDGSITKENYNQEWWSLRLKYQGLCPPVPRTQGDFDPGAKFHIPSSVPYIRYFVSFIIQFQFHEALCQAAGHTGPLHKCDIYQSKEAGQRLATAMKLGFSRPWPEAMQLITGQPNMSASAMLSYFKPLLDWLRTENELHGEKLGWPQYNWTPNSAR

C[C@H](CSC(=O)C(Cc1ccccc1)NC(=O)c1ccccc1)C(=O)N1CCC[C@H]1C(=O)O (stereo partly drawn) [Compound (I), 2-benzoylphenylalanylthio-2-D-methylpropanoyl-L-proline]
effects of angiotensin II (specificity) [1]: not inhibited | IC50 [2]: 40 nM and 10 nM | Serum ACE activity (serum ACE [3]; 0.167 h, Rabbit 1): 7% of Control | Serum ACE activity (serum ACE [3]; 0.167 h, Rabbit 2): 11% of Control | Serum ACE activity (serum ACE [3]; 0.33 h, Rabbit 1): 8% of Control | Serum ACE activity (serum ACE [3]; 0.33 h, Rabbit 2): 9% of Control | Serum ACE activity (serum ACE [3]; 0.5 h, Rabbit 1): 7% of Control | Serum ACE activity (serum ACE [3]; 0.5 h, Rabbit 2): 8% of Control | Serum ACE activity (serum ACE [3]; 1.0 h, Rabbit 1): 20% of Control | Serum ACE activity (serum ACE [3]; 1.0 h, Rabbit 2): 44% of Control | Serum ACE activity (serum ACE [3]; 1.5 h, Rabbit 1): 14% of Control | Serum ACE activity (serum ACE [3]; 1.5 h, Rabbit 2): 55% of Control | Serum ACE activity (serum ACE [3]; 2.0 h, Rabbit 1): 11% of Control | Serum ACE activity (serum ACE [3]; 2.0 h, Rabbit 2): 44% of Control | Serum ACE activity (serum ACE [3]; 2.5 h, Rabbit 1): 12% of Control | Serum ACE activity (serum ACE [3]; 2.5 h, Rabbit 2): 40% of Control | Serum ACE activity (serum ACE [3]; 3.0 h, Rabbit 1): 30% of Control | Serum ACE activity (serum ACE [3]; 4.0 h, Rabbit 1): 23% of Control | Serum ACE activity (serum ACE [3]; 5.0 h, Rabbit 1): 19% of Control | Serum ACE activity (serum ACE [3]; 20.0 h, Rabbit 1): 70% of Control | Serum ACE activity (serum ACE [4]; 5 min, run 1): 100% of Control | Serum ACE activity (serum ACE [4]; 5 min, run 2): 100% of Control | Serum ACE activity (serum ACE [4]; 10 min, run 1): 65% of Control | Serum ACE activity (serum ACE [4]; 10 min, run 2): 52% of Control | Serum ACE activity (serum ACE [4]; 30 min, run 1): 50% of Control | Serum ACE activity (serum ACE [4]; 30 min, run 2): 45% of Control | Serum ACE activity (serum ACE [4]; 60 min, run 1): 50% of Control | Serum ACE activity (serum ACE [4]; 60 min, run 2): 42% of Control | Serum ACE activity (serum ACE [4]; 90 min, run 1): 20% of Control | Serum ACE activity (serum ACE [4]; 90 min, run 2): 20% of Control

Reference: patent publication US4745124A, “Orally effective anti-hypertensive agents” (priority 1983, dated 1988)
